Consider seven compounds from patent US7388070B1, “Structure-based approach to design of inhibitors of protein-processivity factor interactions” (priority 1999, dated 2008).

The target in one data set is T1, HSV Pol and UL42 (Human herpesvirus 1, UniProt P10226).
T1 construct: made in house; host or cells: insect cells infected with recombinant baculoviruses
As to the kind of experiment: Inhibition of UL42-mediated long-chain DNA synthesis (polymerase assay, poly(dA)/oligo(dT) primer/template). It is filed as biochemical. The text has this:
To perform structure-activity studies, “alanine scan” mutants of peptide E, in which each non-alanine residue was individually converted to an alanine, were synthesized and tested for their ability to inhibit long-chain DNA synthesis by Pol and UTL42. A poly(dA)/oligo(dT15) template/primer was employed. On this primer/template, Pol alone adds only one or two bases, but when UL42 is present, longer DNA products are formed. DNA products greater than 18 bases were quantified at varying peptide concentrations and expressed as a percentage of products formed by Pol/UL42 in the presence of vehicle control.
Reaction mixtures contained 50 mM Tris-Cl (pH 7.6), 100 mM (NH4)2SO4, 3 mM MgCl2, 0.1 mM EDTA, 1 mM dithiothreitol, 0.1 μg BSA, 4% glycerol, 0.25 μg of poly(dA)-oligo(dT) primer/template, […] [^32P]-TTP (5 Ci/mMol), 100 fmol of HSV Pol, 200 fmol of UL42 and varying concentrations of peptide inhibitors in a final volume of 25 μL. Reactions were carried out at 37° C. for 5 to 10 minutes. Reactions were stopped by placing them on ice and adding 5 μL of alkaline loading buffer (2 mM EDTA, 50 mM NaOH, 2.5% glycerol, 0.025% bromcresol green) and were then loaded onto a 4% alkaline agarose gel. Gels were dried overnight and used to expose film and phosphoresence screens. Because Pol alone added only 1-2 nucleotides to the 15 base primer, newly synthesized DNA larger than 18 bases was defined as long-chain and quantified using a Molecular Dynamics Phosphorimager.

The nature of data set [1]: CD spectroscopy, helicity from ellipticity at 222 nm. To be noted: calculated from ellipticity values at 222 nm from CD measurements. It is filed as physicochemical. The method, then: CD spectroscopy was performed in order to determine if the peptides with the least inhibitory activity were altered structurally. […] Therefore, the lack of inhibitory activity of these two mutants may be at least in part due to alterations in structure.
Lyophilized peptides were resuspended in 10 mM KF and adjusted to pH 8 with KOH. Spectra were recorded at the indicated peptide concentrations with an Aviv 62DS SpectroPolarimeter at 0° C. in a 0.1 cm pathlength cuvette. Wavelength scans were recorded at 1 nm intervals with a 5 second averaging time, and 5 to 10 scans were averaged. Peptide concentrations were determined by quantitative amino acid analysis. Unfolding curves were obtained by monitoring mean residue ellipticity at 222 nm as a function of the concentration of guanidine-HCl and temperature.

T1 sequence (P10226 whole entry): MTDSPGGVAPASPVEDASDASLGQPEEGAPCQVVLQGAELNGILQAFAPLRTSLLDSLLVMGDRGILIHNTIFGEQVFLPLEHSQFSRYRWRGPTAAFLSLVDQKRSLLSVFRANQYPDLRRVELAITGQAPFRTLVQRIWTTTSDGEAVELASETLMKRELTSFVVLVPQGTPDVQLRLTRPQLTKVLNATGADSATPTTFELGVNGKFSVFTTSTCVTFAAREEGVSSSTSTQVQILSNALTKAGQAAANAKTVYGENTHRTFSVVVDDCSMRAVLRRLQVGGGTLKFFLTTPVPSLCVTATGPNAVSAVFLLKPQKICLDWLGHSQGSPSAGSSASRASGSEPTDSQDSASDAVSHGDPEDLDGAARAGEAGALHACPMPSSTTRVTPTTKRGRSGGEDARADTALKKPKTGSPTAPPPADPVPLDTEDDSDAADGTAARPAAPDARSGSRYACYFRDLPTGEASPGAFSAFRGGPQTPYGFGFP

`CSCC[C@H](NC(=O)[C@H](CCCNC(=N)N)NC(=O)[C@H](CCCNC(=N)N)NC(=O)[C@@H](NC(=O)[C@H](CCC(=O)O)NC(=O)[C@H](C)NC(=O)[C@H](C)NC(=O)[C@@H](NC(=O)[C@H](C)N)[C@@H](C)O)[C@@H](C)O)C(=O)N[C@@H](CC(C)C)C(=O)N[C@@H](Cc1c[nH]cn1)C(=O)N[C@@H](CCCNC(=N)N)C(=O)N[C@@H](C)C(=O)N[C@@H](Cc1ccccc1)C(=O)N[C@@H](CC(=O)O)C(=O)N[C@H](C(=O)N[C@@H](CC(C)C)C(=O)N[C@@H](C)C(=O)O)[C@@H](C)O` [Peptide E22A] displayed an IC50 on HSV Pol and UL42 greater than 100 µM.
Regarding “Ac-ATAEETRRMLHAAFDTLA-NH2 (N-terminus and C-terminus assumed) [Peptide R30A]”, the IC50 against HSV Pol and UL42 is greater than 100 µM. The “% Helicity” value in data set [1] was 26%.
“Ac-ATAEETRRALHRAFDTLA-NH2 (N-terminus and C-terminus assumed) [Peptide M27A]” registered an IC50 against HSV Pol and UL42 greater than 100 µM.
At HSV Pol and UL42, “Ac-ATAEETRRMLARAFDTLA-NH2 (N-terminus and C-terminus assumed) [Peptide H29A]” showed an IC50 greater than 100 µM. Further, in data set [1], the “% Helicity” value is given as 25%.
`CSCC[C@H](NC(=O)[C@H](CCCNC(=N)N)NC(=O)[C@H](CCCNC(=N)N)NC(=O)[C@@H](NC(=O)[C@H](CCC(=O)O)NC(=O)[C@H](CCC(=O)O)NC(=O)[C@H](C)NC(=O)[C@H](C)NC(=O)[C@H](C)NC(C)=O)[C@@H](C)O)C(=O)N[C@@H](CC(C)C)C(=O)N[C@@H](Cc1c[nH]cn1)C(=O)N[C@@H](CCCNC(=N)N)C(=O)N[C@@H](C)C(=O)N[C@@H](Cc1ccccc1)C(=O)N[C@@H](CC(=O)O)C(=O)N[C@H](C(=O)N[C@@H](CC(C)C)C(=O)N[C@@H](C)C(N)=O)[C@@H](C)O` [Peptide T20A]: on HSV Pol and UL42, the IC50 is greater than 100 µM. Moreover, the “% Helicity” value in data set [1] is listed as 16%.
On the same counts, the results for `CSCC[C@H](NC(=O)[C@H](CCCNC(=N)N)NC(=O)[C@H](CCCNC(=N)N)NC(=O)[C@@H](NC(=O)[C@H](CCC(=O)O)NC(=O)[C@H](CCC(=O)O)NC(=O)[C@H](C)NC(=O)[C@@H](NC(=O)[C@H](C)NC(C)=O)[C@@H](C)O)[C@@H](C)O)C(=O)N[C@@H](CC(C)C)C(=O)N[C@@H](Cc1c[nH]cn1)C(=O)N[C@@H](CCCNC(=N)N)C(=O)N[C@@H](C)C(=O)N[C@@H](C)C(=O)N[C@@H](CC(=O)O)C(=O)N[C@H](C(=O)N[C@@H](CC(C)C)C(=O)N[C@@H](C)C(N)=O)[C@@H](C)O` [Peptide F32A] are greater than 100 µM and 28%.
Turning to `CSCC[C@H](NC(=O)[C@H](CCCNC(=N)N)NC(=O)[C@H](CCCNC(=N)N)NC(=O)[C@@H](NC(=O)[C@H](CCC(=O)O)NC(=O)[C@H](CCC(=O)O)NC(=O)[C@H](C)NC(=O)[C@@H](NC(=O)[C@H](C)NC(=O)CNC(=O)[C@H](C)NC(=O)CNC(=O)[C@@H](NC(=O)[C@H](C)NC(=O)CNC(=O)[C@H](Cc1ccccc1)NC(=O)CNC(=O)[C@H](C)NC(=O)[C@H](C)NC(=O)[C@H](CCCNC(=N)N)NC(=O)[C@H](CC(C)C)NC(=O)[C@H](CCCNC(=N)N)NC(=O)[C@H](C)NC(=O)[C@H](C)NC(=O)[C@@H](NC(=O)[C@H](CC(=O)O)NC(=O)[C@H](CC(=O)O)NC(C)=O)C(C)C)C(C)C)[C@@H](C)O)[C@@H](C)O)C(=O)N[C@@H](CC(C)C)C(=O)N[C@@H](Cc1c[nH]cn1)C(=O)N[C@@H](CCCNC(=N)N)C(=O)N[C@@H](C)C(=O)N[C@@H](Cc1ccccc1)C(=O)N[C@@H](CC(=O)O)C(=O)N[C@H](C(=O)N[C@@H](CC(C)C)C(=O)N[C@@H](C)C(=O)O)[C@@H](C)O` [Peptide A], the “% Helicity” value in data set [1] is reported as 20%.
